Data on seven compounds can be found in patent publication US7622497B2, “Derivatives of gambogic acid and analogs as activators of caspases and inducers of apoptosis” (Cytovia, Inc., priority 2003, dated 2009).

In general, EC50 refers to the concentration giving half of the maximal effect. A word on the GI50: it is the concentration at which growth is held to half of that of the control. Low values mean greater sensitivity of the cells, high ones lower sensitivity of the cells.

Test [1] relates to T-47D. Nature of the test: Caspase cascade activation (DEVD-R110 fluorogenic substrate) in T-47D cells. The class given is cell-based, Human. The settings on record: 24 h incubation; for EC50: Homo sapiens, T47D, read-out: Caspase potency EC50 T-47D; for Caspase activity (Ratio) T-47D: ratio of net RFU of compound to control, 0.16 to 10 μM final. The procedure: (§1) Human breast cancer cell lines T-47D and DLD were grown according to media component mixtures designated by American Type Culture Collection+10% FCS Invitrogen Corporation), in a 5% CO2-95% humidity incubator at 37° C. T-47D and DLD cells were maintained at a cell density between 30 and 80% confluency and for HL-60 at a cell density of 0.1 to 0.6×10^6 cells/ml. Cells were harvested at 600×g and resuspended at 0.65×10^6 cells/mL into appropriate media+10% FCS. An aliquot of 45 μl of cells was added to a well of a 96-well microtiter plate containing 5 μl of a 10% DMSO in RPMI-1640 media solution containing 1.6 to 100 μM of novel derivative of gambogic acid (0.16 to 10 μM final). An aliquot of 45 μl of cells was added to a well of a 96-well microtiter plate containing 5 μl of a 10%. DMSO in RPMI-1640 media solution without test compound as the control sample. The samples were mixed by agitation and then incubated at 37° C. for 24 h in a 5% CO2-95% humidity incubator. After incubation, the samples were removed from the incubator and 50 μl of a solution containing 20 μM of N-(Ac-DEVD)-N′-ethoxycarbonyl-R110 fluorogenic substrate SEQ ID NO:1 (Cytovia, Inc.; U.S. Pat. No. 6,335,429), 20% sucrose (Sigma), 20 mM DTT (Sigma), 200 mM NaCl (Sigma), 40 mM Na PIPES buffer pH 7.2 (Sigma), and 500 μg/ml lysolecithin (Calbiochem) was added. The samples were mixed by agitation and incubated at room temperature. Using a fluorescent plate reader (Model 1420 Wallac Instruments), an initial reading (T=0) was made approximately 1-2 min after addition of the substrate solution, employing excitation at 485 nm and emission at 530 nm, to determine the background fluorescence of the control sample. After approximately 3 h of incubation, the samples were read for fluorescence as above (T=3 h).
(§2) The Relative Fluorescence Unit values (RFU) were used to calculate the sample readings as follows: RFU(T=3h)−Control RFU(T=0)=Net RFU(T=3h)
(§3) The activity of caspase cascade activation was determined by the ratio of the net RFU value for derivatives of gambogic acid to that of control samples. The EC50 (nM) was determined by a sigmoidal dose-response calculation (Prism 2.0, GraphPad Software Inc.).

Test [2] concerns DLD. Nature of the test: Caspase cascade activation (DEVD-R110 fluorogenic substrate) in DLD cells. The class given is cell-based, Human. The settings on record: 24 h incubation; for EC50: Homo sapiens, read-out: Caspase potency EC50 DLD; for Caspase activity (Ratio) DLD: ratio of net RFU of compound to control, 0.16 to 10 μM final. As for the experimental part: as §1, §2, §3
In test [3] the test system is MX-1. Nature of the test: Inhibition of cell proliferation (GI50), MX-1. The class given is cell-based. The settings on record: Homo sapiens, MX1; MX-1 cells, 48 h, CellTiter 96 AQueous. The procedure:
(§4) T-47D, DLD-1, MX-1, SW620, H1299, HEK293T and HEK293H cells were grown and harvested as in Example 11. An aliquot of 90 μL of cells (2.2×10^4 cells/mL) was added to a well of a 96-well microtiter plate containing 10 μl of a 10% DMSO in RPMI-1640 media solution containing 1 nM to 100 μM of novel derivative of gambogic acid (Example 2; 0.1 nM to 10 μM final). An aliquot of 90 μL of cells was added to a well of a 96-well microtiter plate containing 10 μL of a 10% DMSO in RPMI-1640 media solution without compound as the control sample for maximal cell proliferation (AMax). The samples were mixed by agitation and then incubated at 37° C. for 48 h in a 5% CO2-95% humidity incubator. After incubation, the samples were removed from the incubator and 20 μL of CellTiter 96 AQUEOUS One Solution Cell Proliferation™ reagent (Promega) was added. The samples were mixed by agitation and incubated at 37° C. for 2-4 h in a 5% CO2-95% humidity incubator. Using an absorbance plate reader (Model 1420 Wallac Instruments), an initial reading (T=0) was made approximately 1-2 min after addition of the solution, employing absorbance at 490 nm. This determines the possible background absorbance of the test compounds. No absorbance for the derivative of gambogic acid was found at 490 nm. After the 2-4 h incubation, the samples were read for absorbance as above (ATest). […]

Test [4] has as its system HEK293H. Nature of the test: Inhibition of cell proliferation (GI50), HEK293H. The settings on record: HEK293-H; HEK293H cells, 48 h, CellTiter 96 AQueous. The class given is cell-based. The procedure:
as §4

Test [5] concerns SW620. Nature of the test: Inhibition of cell proliferation (GI50), SW620. The class given is cell-based. Conditions: Homo sapiens, SW-620; SW620 cells, 48 h, CellTiter 96 AQueous. As for the experimental part:
as §4

Test [6] deals with DLD. Nature of the test: Inhibition of cell proliferation (GI50), DLD. The class given is cell-based. The settings on record: Homo sapiens; DLD cells, 48 h, CellTiter 96 AQueous. As for the experimental part:
as §4

The test system of test [7] is HEK293T. The experiment in a line: Inhibition of cell proliferation (GI50), HEK293T. Conditions: Homo sapiens, HEK-293T; HEK293T cells, 48 h, CellTiter 96 AQueous. The class given is cell-based. As for the experimental part:
as §4

In test [8] the test system is H1299. Nature of the test: Inhibition of cell proliferation (GI50), H1299. The settings on record: Homo sapiens, NCI-H1299; H1299 cells, 48 h, CellTiter 96 AQueous. The class given is cell-based. The procedure:
as §4

The test system of test [9] is T47D. Nature of the test: Inhibition of cell proliferation (GI50), T47D. The settings on record: Homo sapiens; T47D cells, 48 h, CellTiter 96 AQueous. The class given is cell-based. The procedure:
as §4

For the compound `CC(C)=CCCC1(C)C=Cc2c(O)c3c(c(CC=C(C)C)c2O1)OC12C(=CC4CC1C(C)(C)OC2(C/C=C(/C)C(=O)OCCN1CCOCC1)C4=O)C3=O` (centres unmarked) [Example 1, 2-(Morpholin-4-yl)-ethyl gambogate], in [1], the EC50 was 303 nM and the “Caspase activity (Ratio) T-47D” value was 18. For the same compound, in test [2], the EC50 was found to be 350 nM and the “Caspase activity (Ratio) DLD” value is on record as 7.6.
As to `CC(C)=CCCC1(C)C=Cc2c(O)c3c(c(CC=C(C)C)c2O1)OC12C(=CC4CC1C(C)(C)OC2(C/C=C(/C)C(=O)OCCN(C)C)C4=O)C3=O` (centres unmarked) [Example 2, 2-Dimethylaminoethyl gambogate], the GI50 in [3] was determined as 101 nM; in test [4], 192 nM; in [5], 180 nM; in test [6], 173 nM; in test [7], 440 nM; in test [8], 184 nM. The compound also came in with a GI50 in [9] of 187 nM. Besides, the EC50 in test [1] came to 676 nM; in [2], 1040 nM. For the same compound, the “Caspase activity (Ratio) T-47D” value in test [1] worked out at 17. The “Caspase activity (Ratio) DLD” value in test [2] turned out to be 7.2.
Turning to `CC(C)=CCCC1(C)C=Cc2c(O)c3c(c(CC=C(C)C)c2O1)OC12C(=CC4CC1C(C)(C)OC2(C/C=C(/C)C(=O)NCCCN1CCN(C)CC1)C4=O)C3=O` (centres unmarked) [Example 3, N-[3-(4-Methyl-piperazin-1-yl)-propyl]gambogamide], in [1], the EC50 worked out at 1660 nM and the “Caspase activity (Ratio) T-47D” value worked out at 13. Besides, in test [2], the EC50 worked out at 2120 nM and the “Caspase activity (Ratio) DLD” value worked out at 5.8.
For `CC(C)=CCCC1(C)C=Cc2c(O)c3c(c(CC=C(C)C)c2O1)OC12C(=CC4CC1C(C)(C)OC2(C/C=C(/C)C(=O)NCCCN1CCOCC1)C4=O)C3=O` (centres unmarked) [Example 4, N-(3-Morpholin-4-yl-propyl)gambogamide], in that order: 638 nM, 15, 824 nM and 7.2.
`COC(=O)/C(C)=C\CC12OC(C)(C)C3CC(C=C4C(=O)c5c(O)c6c(c(CC=C(C)C)c5OC431)OC(C)(CCC(O)C(C)(C)O)C=C6)C2=O` (centres unmarked) [Example 5, Methyl 37,38-Dihydroxy-gambogate]: in test [1], the EC50 came to 750 nM and the “Caspase activity (Ratio) T-47D” value was 17. Moreover, in [2], the EC50 came to 1290 nM and the “Caspase activity (Ratio) DLD” value is recorded as 7.2.
For `COC(=O)/C(C)=C\CC12OC(C)(C)C3CC(C1=O)C(N1CCOCC1)C1C(=O)c4c(O)c5c(c(CC=C(C)C)c4OC132)OC(C)(CCC(O)C(C)(C)O)C=C5` (centres unmarked) [Example 6, Methyl 37,38-Dihydroxy-9,10-dihydro-10-morpholinyl-gambogate], in test [1], the EC50 stood at 1160 nM and the “Caspase activity (Ratio) T-47D” value amounted to 17. In addition, in test [2], the EC50 turned out to be 2400 nM and the “Caspase activity (Ratio) DLD” value came to 9.2.
For `COC(=O)/C(C)=C\CC12OC(C)(C)C3CC(C1=O)C(N1CCOCC1)C1C(=O)c4c(O)c5c(c(CC=C(C)C)c4OC132)OC(C)(CCC=O)C=C5` (centres unmarked) [Example 7, Methyl 20-Ethylaldehyde-9,10-dihydro-10-morpholinyl-morellinate], in test [1], the EC50 was 1110 nM and the “Caspase activity (Ratio) T-47D” value is on record as 16. In addition, in test [2], the EC50 is 1360 nM and the “Caspase activity (Ratio) DLD” value is listed as 5.8.
